Measured values as given in ChEMBL document CHEMBL4011641, “Prodrugs of Pyrazolo[3,4-d]pyrimidines: From Library Synthesis to Evaluation as Potential Anticancer Agents in an Orthotopic Glioblastoma Model” (J Med Chem, 2017).
≈ marks a conversion by molar mass, not a printed value.

Columns and labels:
physchem [1] = settings: PAMPA
Description: (§1) Apparent permeability at 500 uM after 5 hrs by Gastro-intestinal-based PAMPA

[2] = Half life in methanol at 100 uM by UV/LC-MS analysis; format: physicochemical
[3] = Half life in PBS buffer at 100 uM at pH 7.4 by UV/LC-MS analysis; format: physicochemical
cells [4] = settings: Homo sapiens, U-87 MG, 24 h
Description: Cytotoxicity against human U87 cells assessed as reduction in cell viability after 24 hrs by trypan blue assay

cells [5] = settings: Homo sapiens, U-87 MG, 72 h
Description: Cytotoxicity against human U87 cells assessed as reduction in cell viability after 72 hrs by trypan blue assay

cells [6] = settings: Homo sapiens, U-87 MG, 48 h
Description: Cytotoxicity against human U87 cells assessed as reduction in cell viability after 48 hrs by trypan blue assay

[7] = Half life in human plasma by UV/LC-MS analysis; format: ADME, cell-free
physchem [8] = settings: aqueous
Description: Aqueous solubility of compound at 1 mg after 24 hrs by UV/LC-MS analysis

physchem [9] = settings: PAMPA; remark: listed apart in the source
Description: Apparent permeability at 500 uM after 5 hrs by Blood-Brain Barrier-based PAMPA

[10] = Metabolic stability in human liver microsomes assessed as parent compound remaining at 50 uM after 1 hr in presence of NADPH regenerating system by UV/LC-MS analysis; format: ADME, microsome; settings: read-out: Stability
[11] = pampa, 5 h, 500 µM
Description: as §1

[12] = biological target: Proto-oncogene tyrosine-protein kinase Src (Homo sapiens, UniProt P12931); experiment: biochemical
Description: Inhibition of human wild type full length N-terminal GST/6His-tagged SRC (M1 to L536 residues) expressed in baculovirus infected Sf9 cells using src peptide as substrate after 5 mins in presence of [gamma-32P]ATP by scintillation counting method

[13] = Drug uptake in cytoplasm of human U87 cells at 20 uM after 5 hrs by UV/LC-MS analysis; format: ADME
[14] = Prodrug activation in human U87 cells assessed as N-(3-bromophenyl)-6-(methylthio)-1-(2-phenylpropyl)-1H-pyrazolo[3,4-d]pyrimidin-4-amine formation at 20 uM up to 25 hrs by UV/LC-MS analysis; format: cell-based; settings: u-87mg atcc
[15] = Metabolic stability in mouse liver microsomes assessed as unmetabolized compound remaining at 50 uM after 1 hr in presence of NADPH regenerating system by UV/LC-MS analysis; format: ADME, microsome; settings: read-out: Stability
[16] = Drug uptake in cytoplasm of human U87 cells at 20 uM after 2 hrs by UV/LC-MS analysis; format: ADME
[17] = Half life in mouse plasma by UV/LC-MS analysis; format: ADME, cell-free
[18] = biological target: Tyrosine-protein kinase ABL1 (Homo sapiens, UniProt P00519)
Description: Inhibition of human wild type full length N-terminal GST/6His-tagged ABL (P118 to S535 residues) expressed in Sf9 cells using abltide as substrate after 5 mins in presence of [gamma-32P]ATP by scintillation counting

[19] = Drug uptake in cytoplasm of human U87 cells at 20 uM after 7 hrs by UV/LC-MS analysis; format: ADME

Chain of Tyrosine-protein kinase ABL1 (P00519 whole entry): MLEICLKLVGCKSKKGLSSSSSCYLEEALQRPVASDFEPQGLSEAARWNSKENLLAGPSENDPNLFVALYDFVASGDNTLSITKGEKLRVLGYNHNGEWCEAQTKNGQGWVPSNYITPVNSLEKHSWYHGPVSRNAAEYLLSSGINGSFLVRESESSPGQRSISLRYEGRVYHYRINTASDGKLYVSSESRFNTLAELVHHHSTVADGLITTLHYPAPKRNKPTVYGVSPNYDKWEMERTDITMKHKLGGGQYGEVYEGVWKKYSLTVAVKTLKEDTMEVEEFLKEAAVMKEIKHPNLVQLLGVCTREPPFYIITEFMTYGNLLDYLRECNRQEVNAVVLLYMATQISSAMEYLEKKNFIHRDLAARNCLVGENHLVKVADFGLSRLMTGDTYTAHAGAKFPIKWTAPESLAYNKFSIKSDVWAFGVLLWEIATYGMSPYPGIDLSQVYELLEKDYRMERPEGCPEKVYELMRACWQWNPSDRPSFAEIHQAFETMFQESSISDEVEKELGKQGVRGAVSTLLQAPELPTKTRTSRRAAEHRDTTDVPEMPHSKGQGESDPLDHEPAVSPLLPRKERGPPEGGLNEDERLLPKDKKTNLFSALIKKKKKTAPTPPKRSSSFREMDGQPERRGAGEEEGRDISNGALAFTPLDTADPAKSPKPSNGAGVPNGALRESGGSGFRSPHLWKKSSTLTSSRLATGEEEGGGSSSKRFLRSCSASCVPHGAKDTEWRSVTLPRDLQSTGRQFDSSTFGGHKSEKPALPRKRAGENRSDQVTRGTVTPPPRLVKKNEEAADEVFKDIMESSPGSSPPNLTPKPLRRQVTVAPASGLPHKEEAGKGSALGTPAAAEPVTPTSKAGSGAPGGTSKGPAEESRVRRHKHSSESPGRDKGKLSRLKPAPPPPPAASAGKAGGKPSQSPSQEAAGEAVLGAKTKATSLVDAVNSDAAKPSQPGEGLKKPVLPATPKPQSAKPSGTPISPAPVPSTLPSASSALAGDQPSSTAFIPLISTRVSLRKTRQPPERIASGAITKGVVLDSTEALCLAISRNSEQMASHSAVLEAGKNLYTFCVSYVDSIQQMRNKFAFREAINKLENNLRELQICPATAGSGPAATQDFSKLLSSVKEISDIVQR
Chain of Proto-oncogene tyrosine-protein kinase Src (P12931 2-536 limits assumed): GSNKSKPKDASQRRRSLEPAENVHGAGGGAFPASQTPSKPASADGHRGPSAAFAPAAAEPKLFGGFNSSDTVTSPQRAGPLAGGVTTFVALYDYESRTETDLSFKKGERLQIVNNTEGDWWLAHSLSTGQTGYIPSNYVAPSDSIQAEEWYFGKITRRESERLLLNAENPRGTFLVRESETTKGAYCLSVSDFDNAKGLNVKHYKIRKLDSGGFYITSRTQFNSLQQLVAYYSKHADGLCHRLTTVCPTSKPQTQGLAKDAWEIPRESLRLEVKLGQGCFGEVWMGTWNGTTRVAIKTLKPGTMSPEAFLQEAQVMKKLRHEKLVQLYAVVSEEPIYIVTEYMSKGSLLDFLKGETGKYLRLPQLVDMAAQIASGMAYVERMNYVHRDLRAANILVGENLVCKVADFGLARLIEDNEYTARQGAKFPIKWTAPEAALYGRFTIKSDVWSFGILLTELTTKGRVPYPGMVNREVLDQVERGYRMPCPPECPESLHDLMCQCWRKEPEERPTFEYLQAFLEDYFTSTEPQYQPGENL

Row | Papp at 5 h, 500 µM (physchem [1]) [×10⁻⁶ cm/s] | half-life at 100 µM [2] [h] | half-life at 100 µM [3] [h] | IC50 (cells [4]) [µM] | IC50 (cells [5]) [µM] | IC50 (cells [6]) [µM] | half-life [7] [h] | solubility at 24 h (physchem [8]) [µg/mL] | Papp at 5 h, 500 µM (physchem [9]) [×10⁻⁶ cm/s] | remaining at 1 h, 50 µM [10] [%] | Papp [11] [×10⁻⁶ cm/s] | Ki [12] [µM] | Drug uptake [13] | Drug metabolism [14] | remaining at 1 h, 50 µM [15] [%] | Drug uptake [16] | half-life [17] [h] | Ki [18] [µM] | Drug uptake [19] | Structure (SMILES)
1 | 1.45 | > 48 | > 48 | 7.7 | 2 | 6.4 | 11.3 | 1.96 (≈ 3 µM) | 0.93 | – | – | – | – | – | – | – | – | – | – | CCC(CN1CCN(C)CC1)OC(=O)N(c1cccc(Br)c1)c1nc(SC)nc2c1cnn2CC(C)c1ccccc1 (stereo unspecified)
2 | 4.69 | > 48 | > 48 | – | – | – | 3.13 | 6.32 (≈ 11.2 µM) | 4.3 | – | – | – | – | – | – | – | – | – | – | CSc1nc(N(C(=O)OCCN2CCN(C)CC2)c2cccc(Cl)c2)c2cnn(CCc3ccccc3)c2n1
3 | – | – | – | – | – | – | – | – | 1.48 | 99 | 0.25 | – | – | – | – | – | – | – | – | CSc1nc(Nc2cccc(Cl)c2)c2cnn(CCc3ccccc3)c2n1
4 | – | > 48 | > 48 | 7.3 | 1.57 | 2.2 | – | 6.47 (≈ 10.4 µM) | 1.89 | – | – | > 100 | Active | Metabolite_Detected | 93.3 | Active | 2 | > 100 | – | CSc1nc(N(C(=O)OCCN2CCN(C)CC2)c2cccc(Br)c2)c2cnn(CC(C)c3ccccc3)c2n1 (stereo unspecified)
5 | 2.15 | > 48 | > 48 | 7.4 | 1.8 | 4.5 | – | 3.4 (≈ 5.32 µM) | 2.39 | – | – | > 100 | – | Metabolite_Detected | – | – | – | > 100 | Active | CSc1nc(N(C(=O)OC(C)CN2CCN(C)CC2)c2cccc(Br)c2)c2cnn(CC(C)c3ccccc3)c2n1 (stereo unspecified)
6 | 2.32 | > 48 | > 48 | 6.7 | 1.69 | 2.45 | 40 | 0.99 (≈ 1.39 µM) | 1.01 | – | – | > 100 | – | Metabolite_Detected | – | – | – | > 100 | Active | CSc1nc(N(C(=O)OC(Cc2ccccc2)CN2CCN(C)CC2)c2cccc(Br)c2)c2cnn(CC(C)c3ccccc3)c2n1 (stereo unspecified)
7 | 4.95 | > 48 | > 48 | 11.5 | 2.54 | 7.9 | 3.71 | 4.22 (≈ 7.03 µM) | 4.14 | – | – | – | – | – | – | – | – | – | – | CSc1nc(N(C(=O)OCCN2CCN(C)CC2)c2cccc(Cl)c2)c2cnn(CC(Cl)c3ccccc3)c2n1 (stereo unspecified)
8 | 9.91 | > 48 | > 48 | 8.2 | 2 | 5.1 | 5.68 | 41.6 (≈ 69.4 µM) | 6.97 | – | – | – | – | – | – | – | – | – | – | CN1CCN(CCOC(=O)N(c2ccccc2)c2ncnc3c2cnn3CC(Cl)c2ccc(Br)cc2)CC1 (stereo unspecified)
9 | 0.85 | > 48 | > 48 | – | – | – | 45.2 | 107 (≈ 180 µM) | 0.01 | – | – | – | – | – | – | – | – | – | – | CSc1nc(N(CCc2ccccc2)C(=O)OCCN2CCN(C)CC2)c2cnn(CC(Cl)c3ccccc3)c2n1 (stereo unspecified)

Further lines, the molecule ahead of its results:

Row | Structure (SMILES) | Papp at 5 h, 500 µM (physchem [1]) [×10⁻⁶ cm/s] | half-life at 100 µM [2] [h] | half-life at 100 µM [3] [h] | IC50 (cells [4]) [µM] | IC50 (cells [5]) [µM] | IC50 (cells [6]) [µM] | half-life [7] [h] | solubility at 24 h (physchem [8]) [µg/mL] | Papp at 5 h, 500 µM (physchem [9]) [×10⁻⁶ cm/s] | remaining at 1 h, 50 µM [10] [%] | Papp [11] [×10⁻⁶ cm/s] | Ki [12] [µM] | Drug uptake [13] | Drug metabolism [14] | remaining at 1 h, 50 µM [15] [%] | Drug uptake [16] | half-life [17] [h] | Ki [18] [µM] | Drug uptake [19]
10 | CCCCN(C(=O)OCCN1CCN(C)CC1)c1nc(SCC)nc2c1cnn2CC(Cl)c1ccccc1 (stereo unspecified) | – | 2 | 1 | – | – | – | 0.46 | – | – | – | – | – | – | – | – | – | – | – | –
11 | Clc1ccccc1CNc1ncnc2c1cnn2CC(Cl)c1ccc(Br)cc1 (stereo unspecified) | – | – | – | – | – | – | – | < 0.01 | 13.2 | 95.2 | – | – | – | – | – | – | – | – | –
12 | ClC(Cn1ncc2c(Nc3ccccc3)ncnc21)c1ccc(Br)cc1 (stereo unspecified) | – | – | – | 25.3 | 14 | 17.3 | – | 0.06 (≈ 0.14 µM) | – | 96.4 | – | – | – | – | – | – | – | – | –
13 | CSc1nc(Nc2cccc(Cl)c2)c2cnn(CC(Cl)c3ccccc3)c2n1 (stereo unspecified) | – | – | – | 21.8 | 12.5 | 17.2 | – | 0.13 (≈ 0.302 µM) | 3.14 | 91.1 | 0.26 | 0.72 | – | – | – | – | – | – | –
14 | CSc1nc(N(C(=O)OC(CN2CCN(C)CC2)c2ccccc2)c2cccc(Br)c2)c2cnn(CC(C)c3ccccc3)c2n1 (stereo unspecified) | – | < 0.25 | < 0.25 | – | – | – | – | – | – | – | – | – | – | – | – | – | – | – | –
15 | CSc1nc(NCCc2ccccc2)c2cnn(CC(Cl)c3ccccc3)c2n1 (stereo unspecified) | 7.4 | – | – | – | – | – | – | 0.07 (≈ 0.165 µM) | 6.17 | 96.2 | – | – | – | – | – | – | – | – | –
16 | CSc1nc(Nc2cccc(Br)c2)c2cnn(CC(C)c3ccccc3)c2n1 (stereo unspecified) | 0.01 | – | – | 16.2 | 1.5 | 2.3 | – | 0.01 (≈ 0.022 µM) | 0.5 | – | – | – | – | – | 94.2 | – | – | – | –
17 | ClC(Cn1ncc2c(NCc3ccccc3)ncnc21)c1ccccc1 (stereo unspecified) | – | – | – | 14.6 | 2.9 | 4.9 | – | 0.7 (≈ 1.92 µM) | – | 78.3 | – | – | – | – | – | – | – | – | –
18 | CN1CCN(CCOC(=O)N(Cc2ccccc2Cl)c2ncnc3c2cnn3CC(Cl)c2ccc(Br)cc2)CC1 (stereo unspecified) | 2.38 | > 48 | > 48 | – | – | – | 75 | 1.95 (≈ 3.01 µM) | 1.92 | – | – | – | – | – | – | – | – | – | –
19 | CN1CCN(CCOC(=O)N(Cc2ccccc2)c2ncnc3c2cnn3CC(Cl)c2ccccc2)CC1 (stereo unspecified) | 6.7 | > 48 | > 48 | 18.6 | 15 | 15.2 | 64.4 | 18.8 (≈ 35.2 µM) | 5.01 | 86.4 | – | – | – | – | – | – | – | – | –
20 | CCCCNc1nc(SCC)nc2c1cnn2CC(Cl)c1ccccc1 (stereo unspecified) | – | – | – | – | – | – | – | 0.05 (≈ 0.128 µM) | 9.99 | – | – | – | – | – | – | – | – | – | –
